Usually EC50 stands for the midpoint of the concentration-response curve. Low values mean higher potency in that assay, high ones lower potency in that assay. As usually defined, the Emax is the size of the effect at its maximum, as opposed to the concentration needed.

Where “and” joins values, the source holds several entries; their conditions need not be identical. Identical values can stand only once. Like-named read-outs stand apart in the source and are kept apart here. Bridge positions count the residues as written; N and C are the ends. Square brackets hold non-standard residues; d marks the D form. Peptide text beside a SMILES is read from it. * marks the point of attachment. X1 = C=CCN1CC[C@]23c4c5ccc(O)c4O[C@H]2[C@H](N*)CC[C@@]3(O)[C@H]1C5

For one assay, the target named is T1, human KOR D138A (Homo sapiens, UniProt P41145, D138A).
T1 construct: expressed in transfected cells
T1 sequence (P41145 whole entry D138A): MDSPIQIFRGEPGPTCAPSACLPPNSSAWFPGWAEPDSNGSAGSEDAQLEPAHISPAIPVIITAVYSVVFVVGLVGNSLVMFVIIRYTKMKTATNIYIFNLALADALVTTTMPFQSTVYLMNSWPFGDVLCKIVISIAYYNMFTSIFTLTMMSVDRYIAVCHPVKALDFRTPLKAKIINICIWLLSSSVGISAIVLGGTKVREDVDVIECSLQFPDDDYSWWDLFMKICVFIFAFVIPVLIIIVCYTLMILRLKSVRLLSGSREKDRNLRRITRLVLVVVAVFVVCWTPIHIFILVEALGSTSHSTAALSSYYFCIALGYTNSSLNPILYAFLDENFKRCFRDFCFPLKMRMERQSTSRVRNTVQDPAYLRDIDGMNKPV
The assay can be described thus: cAMP inhibition assay normalized to salvinorin A. The class given is cell-based.

The target in a further assay is T2, human KOR E209A (Homo sapiens, UniProt P41145, E209A).
T2 construct: FLAG; expressed in transfected cells; host or cells: HEK293 / HEK293T, transient
T2 sequence (P41145 whole entry E209A): as the sequence (P41145 whole entry D138A) above, with A138D, E209A counted along it
Type of assay: cell-based. Conditions: KOR(E209A), Log [drug], individual replicates.

The target of assay [1] is T3, human KOR E297A (Homo sapiens, UniProt P41145, E297A).
T3 construct: FLAG; expressed in transfected cells; host or cells: HEK293T
T3 sequence (P41145 whole entry E297A): as the sequence (P41145 whole entry D138A) above, with A138D, E297A counted along it
The class given is cell-based. Conditions: KOR(E297A), Log [drug], individual replicates.

A further assay addresses T4, human KOR L309A (Homo sapiens, UniProt P41145, L309A).
T4 construct: FLAG; expressed in transfected cells; host or cells: HEK293T
The class given is cell-based. Conditions: KOR(L309A), Log [drug], individual replicates.

For assay [2], the target named is T3, human KOR E297A. The assay can be described thus: BRET β-arrestin-2 biosensor assay. Type of assay: cell-based. Conditions: KOR(E297A), Log [drug], individual replicates. On the technique in general: Bioluminescence resonance energy transfer reports proximity on the nanometre scale.
The target in another assay is T5, mouse KOR, Gαi2 (Mus musculus, UniProt P33534).
T5 construct: expressed in transfected cells; host or cells: HEK293T (ATCC, CRL-3216), transient
T5 sequence (P33534 whole entry): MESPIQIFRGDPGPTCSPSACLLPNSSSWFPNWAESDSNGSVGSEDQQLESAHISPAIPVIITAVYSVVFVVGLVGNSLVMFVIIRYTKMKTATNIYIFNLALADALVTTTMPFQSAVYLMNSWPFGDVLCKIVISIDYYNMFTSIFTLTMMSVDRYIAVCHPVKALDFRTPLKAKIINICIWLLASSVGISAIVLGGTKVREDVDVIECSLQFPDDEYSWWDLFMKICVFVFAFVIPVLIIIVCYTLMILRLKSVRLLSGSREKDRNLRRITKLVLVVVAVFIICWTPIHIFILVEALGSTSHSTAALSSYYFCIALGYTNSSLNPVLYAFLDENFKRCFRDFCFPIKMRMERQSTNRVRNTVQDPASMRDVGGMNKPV
The assay can be described thus: TRUPATH BRET G protein assay, Gαi2. Type of assay: cell-based.

The next assay concerns the target human KOR (Homo sapiens, UniProt P41145). The assay can be described thus: cell-based. More on the design: expressed in transfected cells; host or cells: HEK293, transient.
In a further assay the target is T6, human MOR (Homo sapiens, UniProt P35372).
T6 construct: expressed in transfected cells
T6 sequence (P35372 whole entry): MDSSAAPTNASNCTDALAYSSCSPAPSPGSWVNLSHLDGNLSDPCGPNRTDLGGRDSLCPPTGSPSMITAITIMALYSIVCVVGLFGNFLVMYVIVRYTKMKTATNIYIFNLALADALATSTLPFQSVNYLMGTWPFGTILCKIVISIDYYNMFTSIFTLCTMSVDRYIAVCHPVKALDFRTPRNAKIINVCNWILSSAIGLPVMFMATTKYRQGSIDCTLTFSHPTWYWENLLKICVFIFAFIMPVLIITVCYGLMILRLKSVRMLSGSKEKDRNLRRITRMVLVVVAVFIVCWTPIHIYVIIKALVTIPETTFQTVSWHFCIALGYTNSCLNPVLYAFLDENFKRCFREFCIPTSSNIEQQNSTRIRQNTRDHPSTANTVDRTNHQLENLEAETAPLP
The assay can be described thus: [35S]GTPγS binding assay, CHO membranes. Conditions: relative to DAMGO. The class given is biochemical. In general terms: GTPγS resists hydrolysis and so accumulates on activated G proteins.

Chain of human KOR (P41145 whole entry): as the sequence (P41145 whole entry D138A) above, with A138D counted along it
T4 sequence (P41145 whole entry L309A): as the sequence (P41145 whole entry D138A) above, with A138D, L309A counted along it

Turning to `C=CCN1CC[C@]23c4c5ccc(O)c4O[C@H]2[C@H](NC(=O)[C@@H](Cc2ccccc2)NC(=O)[C@@H](NC(=O)[C@@H]2CSCC(=O)N[C@@H](Cc4ccc(O)cc4)C(=O)N[C@@H](C)C(=O)N[C@H](Cc4ccc(O)cc4)C(=O)N[C@@H]([C@@H](C)O)C(=O)N[C@@H]([C@@H](C)O)C(=O)N2)[C@@H](C)O)CC[C@@]3(O)[C@H]1C5` [DNCP-βNalA(1)] ({CH2CO}-YA[dY]TTCT[dF]-X1; thioether N-6), the “response at D138A, Figure S26” value is 110.03 and 108.68 and 121.152 and 120.937 and 117.964 and 108.941 and 117.457 on human KOR D138A (Log [ligand] (M) -5); 96.1567 and 103.986 and 100.687 and 108.287 and 104.111 and 103.774 and 93.2795 and 106.739 at human KOR D138A (Log [ligand] (M) -6); 95.0352 and 99.2926 and 97.756 and 110.621 and 103.099 and 111.681 and 84.8048 and 93.7365 on human KOR D138A (Log [ligand] (M) -7); 92.5638 and 91.2347 and 98.8959 and 103.021 and 118.301 and 103.099 and 100.466 and 95.1074 on human KOR D138A (Log [ligand] (M) -8); 68.4109 and 66.6248 and 86.0309 and 72.0259 and 98.5019 and 110.7 and 66.4429 and 85.6772 on human KOR D138A (Log [ligand] (M) -9). Also, the Gi1-activation was 95.0321 at human KOR E209A (M = -6); 98.4538 and 95.0321 and 92.9731 (2×) at human KOR E209A (M = -7); 93.8915 and 90.4927 at human KOR E209A (M = -9); 95.0144 at human KOR E297A [1] (M = -5); 93.9606 and 93.3336 and 93.3709 at human KOR E297A [1] (M = -6); 92.7066 and 94.3563 at human KOR E297A [1] (M = -7). Besides, the Gi1-activation at human KOR E297A [1] (M = -8) was 92.7066 and 93.9606 and 93.6983; at human KOR L309A (M = -5), 98.4884 and 94.3563; at human KOR L309A (M = -6), 92.9882 and 93.5382 and 87.9287; on human KOR L309A (M = -7) it was 91.3288 and 89.81 and 94.9619; on human KOR L309A (M = -8), 94.9619 and 94.0882. Also, the βarrestin2-reruitment on human KOR E297A [2] (M = -5) is 64.952 and 70.3776 and 70.3029; on human KOR E297A [2] (M = -6), 64.952 (2×) and 65.8365 and 61.2954 and 65.7763 and 64.7423; at human KOR E297A [2] (M = -7), 57.4606 and 53.3486 and 51.3006 and 53.3686 and 55.3202; at human KOR E297A [2] (M = -8), 54.25 and 56.7544 and 54.4026 and 55.3202; on human KOR E297A [2] (M = -9), 42.4779 and 34.0491 and 29.508 and 29.5871 and 25.4512 and 32.8461; on human KOR E297A [2] (M = -10), 4.532 and 6.8027 and 4.772.

Turning to `CC(C)=CCN1CCC2(C)c3cc(O)ccc3CC1C2C` (centres unmarked) [Pentazocine, pentazocine], the “Gαi2, normalized response (single replicate values)” value was 63.0631 and 33.772 and 78.2944 and 66.7992 and -8.535 and 43.2571 and 15.0067 and 36.1153 on mouse KOR, Gαi2 (Log [ligand] (M) -5); 81.8094 and 43.1452 and 67.7496 and 22.5401 and 66.7992 and 32.8986 (2×) and 41.9735 on mouse KOR, Gαi2 (Log [ligand] (M) -6); 33.772 (2×) and 29.0855 and 9.357 and 40.4321 and 39.4904 and 59.2657 and 49.0034 on mouse KOR, Gαi2 (Log [ligand] (M) -7); 36.1153 and 16.1974 and 29.0855 and -23.6023 and 39.4904 and 26.3069 and 33.8403 and 44.3168 at mouse KOR, Gαi2 (Log [ligand] (M) -8); -10.7504 and 16.1974 and 32.6004 and -17.0105 and 12.1816 and 27.2485 and 41.3738 and 15.0258 on mouse KOR, Gαi2 (Log [ligand] (M) -9); -1.377 and -15.4369 and -0.06023 (2×) and -7.594 and -5.71 and -13.0937 on mouse KOR, Gαi2 (Log [ligand] (M) -10). In addition, the “Gαi2, normalized response (single replicate values)” value was -3.721 and -2.549 and 15.0258 and 1.823 and -26.4273 and -45.2609 and 40.4321 and -15.4369 on mouse KOR, Gαi2 (Log [ligand] (M) -11); 20.884 and 5.653 and -14.2653 and 5.59 and 13.1233 and -22.6606 and 37.607 and -1.377 on mouse KOR, Gαi2 (Log [ligand] (M) -12). For the same compound, the “Gαi2 (Figure 3j)” value at mouse KOR, Gαi2 (source data of Figure 3j, U50,488 about 100) is on record as 42.2346. For the same compound, the concentration for a half-maximal effect (EC50) on human KOR was 1010 nM. The “β-arrestin-2 (Figure 3j)” value at human KOR is listed as 38. In addition, at human KOR (HEK293, read-out: Emax β-arrestin-1 recruitment), the Emax amounted to 38 ± 24%.

DAMGO: the “Emax (%) MOR” value at human MOR is 100%.

Source of the values: publication PMC10698194 (Nature Communications, 2023).
